{
  "source": "patent US20250281481A1",
  "about": "“NALTREXONE FOR BOOSTING THE THERAPEUTIC UTILTY OF 5-HT RECEPTOR AGONISTS” (LDN Pharma Limited, priority 2021, published 2025)",
  "type_in_all_cases": "cell-based, human",
  "key": {"[1]": {"tested_on": "5-HT receptor 1E, mRNA (HTR1E)", "assay": "Microarray gene expression in CD3+ lymphocytes, HTR1E", "conditions": "4 h, probe 1794095", "procedure": "(§1) CD3+ lymphocytes were isolated from the blood of haematologically normal volunteers. Cells placed into 25 cm^3 flasks at a concentration of 1×10^6/ml, and left to equilibrate in an incubator with a humidified atmosphere and 5% CO2 in air at 37° C. […] RNA extraction was performed using Trizol according to standard procedures, before being processed for microarray analysis according to the standard methodologies. Briefly, equal amounts of biotinylated cRNA was hybridised to the Illumina human HT12-v3 arrays for 18 h and subsequently processed according to manufacturer's instructions before scanning on an Illumina BeadArray Reader. The image data were processed using default values in GenomeStudio v2009.1 with imputation of missing data, before loading onto GeneSpring v9.0 for data normalisation and filtering. Data analyses were performed using Excel software, and the ratio of gene expression signals in treated vs. untreated calculated."}, "[2]": {"tested_on": "5-HT receptor 2B, mRNA (HTR2B)", "assay": "Microarray gene expression in CD3+ lymphocytes, HTR2B", "conditions": "4 h, probe 1735764", "procedure": "as §1"}, "[3]": {"tested_on": "5-HT receptor 3A, transcript variant 2, mRNA (HTR3A)", "assay": "Microarray gene expression in CD3+ lymphocytes, HTR3A transcript variant 2", "conditions": "4 h, probe 2371079", "procedure": "as §1"}, "[4]": {"tested_on": "5-HT receptor 3A, transcript variant 1, mRNA (HTR3A)", "assay": "Microarray gene expression in CD3+ lymphocytes, HTR3A transcript variant 1", "conditions": "naltrexone 10 nM, 4 h, probe 1681492", "procedure": "as §1"}, "[5]": {"tested_on": "5-HT receptor 4, transcript variant a, mRNA (HTR4)", "assay": "Microarray gene expression in CD3+ lymphocytes, HTR4 transcript variant a", "conditions": "4 h, probe 1676350", "procedure": "as §1"}, "[6]": {"tested_on": "5-HT receptor 4, transcript variant hb, mRNA (HTR4)", "assay": "Microarray gene expression in CD3+ lymphocytes, HTR4 transcript variant hb", "conditions": "naltrexone 10 nM, 4 h, probe 1808258", "procedure": "as §1"}, "[7]": {"tested_on": "mRNA for one or more of 5-HT receptor proteins", "assay": "Microarray gene expression in CD3+ lymphocytes, overall statement", "conditions": "both higher dose and low dose naltrexone, 4 h", "procedure": "as §1"}},
  "data": [
    {"smiles": "O=C1CC[C@@]2(O)[C@H]3Cc4ccc(O)c5c4[C@@]2(CCN3CC2CC2)[C@H]1O5", "note": "[NTX, morphinan-6-one,17-(cyclopropylmethyl)-4,5-epoxy-3,14-dihydroxy-(5α)]", "values": [
      {"measurement": "gene expression signal, LDN", "setting": "[1]; naltrexone 10 nM", "result": 101.20},
      {"measurement": "gene expression signal, NTX", "setting": "[1]; naltrexone 10 uM", "result": 95.70},
      {"measurement": "gene expression signal, LDN", "setting": "[2]; naltrexone 10 nM", "result": 147.45},
      {"measurement": "gene expression signal, NTX", "setting": "[2]; naltrexone 10 uM", "result": 177.95},
      {"measurement": "gene expression signal, LDN", "setting": "[3]; naltrexone 10 nM", "result": 124.70},
      {"measurement": "gene expression signal, NTX", "setting": "[3]; naltrexone 10 uM", "result": 151.75},
      {"measurement": "gene expression signal, LDN", "setting": "[4]", "result": 94.00},
      {"measurement": "gene expression signal, LDN", "setting": "[5]; naltrexone 10 nM", "result": 100.20},
      {"measurement": "gene expression signal, NTX", "setting": "[5]; naltrexone 10 uM", "result": 96.10},
      {"measurement": "gene expression signal, LDN", "setting": "[6]", "result": 93.50},
      {"measurement": "levels of mRNA for one or more of 5-HT receptor proteins", "setting": "[7]", "result": "increase the levels of mRNA"}
    ]}
  ]
}
